Data: US12410179B2, “Modulators of TNF alpha activity and uses thereof” (RayThera, Inc., priority 2023, dated 2025)

Biological target: TNFα (Homo sapiens, UniProt P01375)
Assay: HEK-Blue hTNFα reporter assay
Assay type: cell-based
Design: purchased R&D biosystem (R&D Systems) 210-TA-020/CF
Settings: HEK-Blue hTNFα reporter cells, SEAP readout; read-out: IC50 Range
Summary of the method: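 Compounds preincubated 1 h at 37 °C with recombinant hTNFα ([…]), then added to HEK293 NF-κB-SEAP reporter cells, 10000 cells/well, 24 h at 37 °C. SEAP read by QUANTI-Blue at OD620; % inhibition versus stimulated and unstimulated controls, IC50 by 4-parameter fit.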

Sequence of TNFα (P01375 77-233 limits assumed): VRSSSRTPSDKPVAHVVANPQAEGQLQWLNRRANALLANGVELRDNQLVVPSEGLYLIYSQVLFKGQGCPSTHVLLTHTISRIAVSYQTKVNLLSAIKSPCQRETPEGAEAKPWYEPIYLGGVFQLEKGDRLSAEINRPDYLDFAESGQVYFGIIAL

Row | Structure (SMILES) | IC50
1 | Cc1nc(C2(N)CCC2)ncc1-c1ccn2nc3c(c2n1)[C@@H]1C[C@H]3NC(=O)c2cccc(OC(F)F)c21 [Example 275] | < 0.025 µM
2 | C[C@]1(O)C[C@](N)(c2ccc(-c3ccn4nc5c(c4n3)[C@@H]3C[C@H]5NC(=O)c4cccc(OC(F)F)c43)cn2)C1 [Example 220] | 0.025 to 0.1 µM
3 | CN1C(=O)c2cccc(OC(F)F)c2[C@H]2C[C@@H]1c1nn3ccc(-c4cnc([C@@H](N)C5CC5)nc4)cc3c12 [Example 104] | < 0.025 µM
4 | CN1C(=O)c2cccc(OC(F)F)c2[C@H]2C[C@@H]1c1nn3ccc(-c4cnc(P(C)(C)=O)c(F)c4)cc3c12 [Example 21] | < 0.025 µM
5 | CN1C(=O)c2cccc(OC(F)F)c2[C@H]2C[C@@H]1c1nn3ccc(-c4cnc([C@]5(N)C[C@@H](O)C5)c(F)c4)cc3c12 [Example 168] | < 0.025 µM
6 | CN1C(=O)c2cccc(OC(F)F)c2[C@H]2C[C@@H]1c1nn3ccc(-c4cnc([C@@]5(O)CCOC5)nc4)cc3c12 [Example 64] | < 0.025 µM
7 | CN1C(=O)c2cccc(C#N)c2[C@H]2C[C@@H]1c1nn3ccc(-c4ccc(P(C)(C)=O)nc4)cc3c12 [Example 303] | < 0.025 µM
8 | CN1C(=O)c2cccc(OC(F)F)c2[C@H]2C[C@@H]1c1nn3ccc(-c4ncc([C@H](O)C5COC5)cn4)cc3c12 [Example 108] | < 0.025 µM
9 | CN1C(=O)c2cccc(OC(F)F)c2[C@H]2C[C@@H]1c1nn3ccc(-c4ccc(P(C)(C)=O)nn4)cc3c12 [Example 100] | < 0.025 µM
10 | [2H]C([2H])([2H])N1C(=O)c2cccc(OC(F)F)c2[C@H]2C[C@@H]1c1nn3ccc(-c4cnc(C5(N)CCC5)nc4C)cc3c12 [Example 241] | < 0.025 µM
11 | CN1C(=O)c2cccc(OC(F)F)c2[C@H]2C[C@@H]1c1nn3ccc(-c4cnc([C@@H](O)C(F)F)nc4)cc3c12 [Example 106] | < 0.025 µM
12 | CN1C(=O)c2cccc(OC(F)F)c2[C@H]2C[C@@H]1c1nn3ccc(-c4ncc([C@H](O)[C@@H]5CCO5)cn4)cc3c12 [Example 131] | < 0.025 µM
13 | CN1C(=O)c2cccc(OC(F)F)c2[C@H]2C[C@@H]1c1nn3cc(F)c(-c4cnc(C5(O)COC5)nc4)cc3c12 [Example 98] | < 0.025 µM
14 | CN1C(=O)c2cccc(OC(F)F)c2[C@H]2C[C@@H]1c1nn3ccc(-c4cnc([C@H](O)C(C)(C)O)nc4)cc3c12 [Example 133] | < 0.025 µM

Second part, the compound after the results:

Row | IC50 | Structure (SMILES)
15 | < 0.025 µM | [2H]C([2H])([2H])N1C(=O)c2cccc(C#N)c2[C@H]2C[C@@H]1c1nn3ccc(-c4cnc([C@]5(N)C[C@@](C)(C#N)C5)nc4)nc3c12 [Example 301, (7R,14R)-12-(2-((1s,3S)-1-amino-3-cyano-3-methylcyclobutyl)pyrimidin-5-yl)-6-(methyl-d3)-5-oxo-5,6,7,14-tetrahydro-7,14-methanobenzo[c]pyrimido[1′,2′:1,5]pyrazolo[4,3-f]azocine-1-carbonitrile]
16 | < 0.025 µM | [2H]C([2H])([2H])N1C(=O)c2cccc(OC(F)F)c2[C@H]2C[C@@H]1c1nn3ccc(-c4cnc([C@]5(N)C[C@@](C)(CO)C5)nc4)cc3c12 [Example 269]
17 | < 0.025 µM | [2H]C([2H])([2H])N1C(=O)c2cccc(OC(F)F)c2[C@H]2C[C@@H]1c1nn3ccc(-c4cnc([C@]5(O)C[C@](C)(C#N)C5)nc4)nc3c12 [Example 272]
18 | < 0.025 µM | [2H]C([2H])([2H])N1C(=O)c2cccc(OC(F)F)c2[C@H]2C[C@@H]1c1nn3cc(C)c(-c4cnc([C@]5(N)C[C@@](C)(C#N)C5)nc4)cc3c12 [Example 259]
19 | < 0.025 µM | [2H]C([2H])([2H])N1C(=O)c2cccc(OC(F)F)c2[C@H]2C[C@@H]1c1nn3ccc(-c4cnc([C@]5(N)C[C@@H](C#N)C5)nc4)nc3c12 [Example 176]
20 | < 0.025 µM | [2H]C([2H])([2H])N1C(=O)c2cccc(C#N)c2[C@H]2C[C@@H]1c1nn3cc(F)c(-c4cnc([C@]5(N)C[C@@](C)(C#N)C5)nc4)cc3c12 [Example 312]
21 | < 0.025 µM | [2H]C([2H])([2H])N1C(=O)c2cccc(OC(F)F)c2[C@H]2C[C@@H]1c1nn3ccc(-c4cnc(C5(N)CCC5)nc4)cc3c12 [Example 248]
